The values that follow come from patent US5652262A, “Hydroxamic acid derivatives as metalloproteinase inhibitors” (British Biotech Pharmaceutical, Ltd., priority 1993, dated 1997).

One data set deals with T1, collagenase (Homo sapiens, UniProt P03956).
T1 sequence (P03956 100-469): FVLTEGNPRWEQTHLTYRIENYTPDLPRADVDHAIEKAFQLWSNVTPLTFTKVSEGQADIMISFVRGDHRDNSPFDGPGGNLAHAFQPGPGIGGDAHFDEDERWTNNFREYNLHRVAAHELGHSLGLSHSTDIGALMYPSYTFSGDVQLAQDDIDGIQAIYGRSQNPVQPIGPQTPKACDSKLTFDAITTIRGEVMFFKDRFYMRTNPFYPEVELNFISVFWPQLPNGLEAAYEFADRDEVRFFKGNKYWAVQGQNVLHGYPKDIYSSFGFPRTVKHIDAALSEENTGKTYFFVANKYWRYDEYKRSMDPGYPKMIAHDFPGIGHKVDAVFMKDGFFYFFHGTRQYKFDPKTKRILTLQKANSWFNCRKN
The data set is described as follows: Inhibition of collagenase (procedure of Cawston and Barrett, acetylated 14C collagen). Type of data set: biochemical. The settings on record: 37°, 16 hours, pH 7.5. On the procedure:
The potency of compounds of the invention as inhibitors of collagenase was determined by the procedure of Cawston and Barrett, (Anal. Biochem., 99, 340-345, 1979), hereby incorporated by reference, whereby a 1 mM solution of the compound being tested, or a dilution thereof, was incubated at 37° for 16 hours with collagen and collagenase (buffered with 25 mM Hepes, pH 7.5 containing 5 mM CaCl2, 0.05% Brij 35 and 0.02% NaN3). The collagen was acetylated ^14 C collagen prepared by the method of Cawston and Murphy, (Methods in Enzymology, 80, 711, 1981), hereby incorporated by reference. The samples were centrifuged to sediment undigested collagen, and an aliquot of the radioactive supernatant removed for assay on a scintillation counter as a measure of hydrolysis.

Data set [1] can be described thus: Systemic blood concentration of inhibitor over 24 hours after oral dosing in rats, by collagenase inhibitory activity of blood extracts. It is filed as in vivo, rat. The settings on record: 10 mg/kg in PBS/0.1% Tween 80 by gavage, male rats, 0.5-24 hours, drug plus any active metabolites, collagenase assay. On the procedure:
The biological efficacy of a compound of the invention in chronic disease states is a function of the systemic blood concentration maintained over time, and its intrinsic potency. These factors can be quantified as IC50.hrs (24 hrs), which parameter is defined as the total number of IC50 s in the blood over the 24 hours post dosing, the IC50 being defined as the concentration of the compound that reduces collagenase activity to 50% of its normal value.:
Test compounds were administered at 10 mg/kg in PBS/0.1% Tween 80 by gavage to 6 male rats (300 g) per treatment group. Blood samples were removed by tail venepuncture at 0.5, 1.0, 2.0, 6.0 and 24 hours post administration. 0.5 ml of blood was placed into 4.5 ml tubes containing 0.1 ml acid citrate dextrose (ACD) as anti-coagulant. For extraction, 3 ml methanol was added and the precipitated blood pelletted by centrifugation (30 min at 3000 rpm). A 2 ml aliquot of supernatant was removed and dried by lyophilisation. The extract was redissolved in 200 μl DMSO and a 10 μl aliquot assayed for collagenase inhibitory activity. The inhibitory activity in the extracts was determined using the collagenase assay described in Biological Example A above, and the concentration of inhibitor (that is drug plus any active metabolites) obtained by comparison with standard curves. […]

For data set [2], the system named is rat adjuvant arthritis model. The data set is described as follows: Rat adjuvant arthritis model, hindpaw oedema volume. It is filed as in vivo. The conditions noted are these: male Lewis rats, two doses of 10 mg/kg orally each day, day 13 to day 17. On the procedure: The compound of Example 1 was tested in a rat adjuvant arthritis model.
Adjuvant arthritis was produced in male Lewis rats (Charles River) by a single intradermal injection of 0.75 mg of M. butyricum in light parafin oil (Freund's complete adjuvant) into the base of the tail. The "secondary" lesion occurs after a delay of 10 days, and is characterised by inflammation of the hindpaws. Hindpaw oedema volumes were measured plethysmographically by water displacement. Animals in the treated groups received two doses of 10 mg/kg of the test compound in PBS/0.1% Tween orally, each day, from day 13 to day 17. Results are reported as paw volume change from the volume measured on day 13.

Another data set addresses stromelysin (Homo sapiens, UniProt P08254). The data set is described as follows: Inhibition of stromelysin (procedure of Cawston et al, acetylated 14C casein). It is filed as biochemical. The settings on record: 37°, 16 hours, pH 7.5. On the procedure: The potency of compounds of the invention as inhibitors of stromelysin was determined by the procedure of Cawston et al, (Biochem. J., 195, 159-165, 1981), hereby incorporated by reference, whereby a 1 mM solution of the compound being tested, or a dilution thereof, was incubated at 37° for 16 hours with stromelysin and ^14 C acetylate casein (buffered with 25 mM Hepes, pH 7.5 containing 5 mM CaCl2, 0.05% Brij 35 and 0.02% NaN3). The casein was acetylated ^14 C casein prepared by the method of Cawston et al (ibid).

stromelysin, sequence (P08254 100-477): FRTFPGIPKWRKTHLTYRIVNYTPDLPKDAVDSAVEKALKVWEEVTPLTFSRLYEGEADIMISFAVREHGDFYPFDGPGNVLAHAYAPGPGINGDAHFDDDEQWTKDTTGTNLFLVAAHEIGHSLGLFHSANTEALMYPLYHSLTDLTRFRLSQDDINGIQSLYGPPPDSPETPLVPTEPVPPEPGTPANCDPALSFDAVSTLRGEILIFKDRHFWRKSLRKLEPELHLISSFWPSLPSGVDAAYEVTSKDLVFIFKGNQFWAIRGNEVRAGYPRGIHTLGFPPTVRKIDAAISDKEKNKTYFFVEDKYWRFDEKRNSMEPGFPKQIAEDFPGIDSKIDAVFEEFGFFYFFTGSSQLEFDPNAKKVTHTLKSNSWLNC

`C=CC[C@H](C(=O)NO)[C@@H](CC(C)C)C(=O)N[C@@H](Cc1ccccc1)C(=O)NC` [Example 1, 3R-(2-Phenyl-1S-methylcarbamoyl-ethylcarbamoyl)-5-methyl-2S-2-propenyl-hexanohydroxamic acid] gave a half-maximal inhibitory concentration (IC50) against collagenase of 10 nM. In addition, in data set [1], the “AUC (IC50.hrs (24hrs))” value is recorded as 233 IC50.hrs. Also, in data set [2] (Day 17), the “paw volume change, Day 17 (% relative to day 13)” value is recorded as 52%. Besides, in data set [2] (Day 20), the “paw volume change, Day 20 (% relative to day 13)” value worked out at 65%.

For `C=CC[C@H](C(=O)NO)[C@@H](CC(C)C)C(=O)N[C@H](C(=O)NC)C(C)(C)C` [Example 5, 3R-(2,2-Dimethyl-1S-methylcarbamoyl-propylcarbamoyl)-5-methyl-2S-2-propenyl-hexanohydroxamic acid], the half-maximal inhibitory concentration (IC50) on collagenase was 3 to 4 nM; on stromelysin, 80 nM. For the same compound, in data set [1], the “AUC (IC50.hrs (24hrs))” value amounted to 970 IC50.hrs.

On to `C=CC[C@H](C(=O)NO)[C@@H](CC(C)C)C(=O)N[C@@H](Cc1ccccc1)C(=O)NCc1ccccc1` [Example 7, 3R-(2-Phenyl-1S-phenylmethylcarbamoyl-ethylcarbamoyl)-5-methyl-2S-2-propenyl-hexanohydroxamic acid], for which the IC50 came out at 10 nM on collagenase and 5 nM against stromelysin.

Usually IC50 stands for the midpoint of a concentration-inhibition curve. A higher IC50 goes with a need for much substance.
